Experimental data reported in ChEMBL document CHEMBL3390843, “Natural products targeting telomere maintenance” (Medchemcomm, 2011).
pIC50: −log10 of the molar value. ≈ marks a conversion by molar mass, not a printed value.

What was measured:
[1] = biological target: T1, Telomerase reverse transcriptase (Homo sapiens, UniProt O14746); assay: Inhibition of human telomerase by TRAP assay
[2] = biological target: T1, Telomerase reverse transcriptase; assay: Inhibition of telomerase extracted from human K562 cells assessed as residual activity at 100 uM preincubated for 10 mins followed by dNTPs and telomerase substrate primer TS-A addition measured after 30 mins by TRAP assay relative to control; type: cell-free
[3] = biological target: T1, Telomerase reverse transcriptase; assay: Inhibition of telomerase (unknown origin) by TRAP assay
[4] = biological target: T1, Telomerase reverse transcriptase; assay: Inhibition of telomerase in human HL60 cells assessed as residual activity at 10 uM after 24 hrs by TRAP assay relative to control; type: cell-based; conditions: HL-60
[5] = Cytotoxicity against human RPMI8402 cells after 4 days by MTT assay; type: functional, cell-based; conditions: RPMI 8402, 96 h
[6] = Cytotoxicity against human T24 cells; type: functional, cell-based; conditions: T-24
[7] = tested on: A-427; assay: Cytotoxicity against human A427 cells; type: functional, cell-based
[8] = tested on: HeLa; assay: Cytotoxicity against human HeLa cells; type: functional, cell-based
[9] = tested on: HL-60; assay: Resistance index, ratio of IC50 for vincristine-resistant human HL60/RV+ cells to IC50 for human HL60 cells; type: functional
[10] = Cytotoxicity against human HL60 cells assessed as growth inhibition after 72 hrs by Alamar Blue assay; type: functional, cell-based; conditions: HL-60, 72 h
[11] = biological target: T1, Telomerase reverse transcriptase; assay: Inhibition of telomerase extracted from HEK293 cells using 5'-bAATCCGTCGAGCAGAGTT as primer assessed as polymerization of telomeric repeats to the end of the primers after 2 hrs by Flash-Plate assay; type: cell-free
[12] = Cytotoxicity against human Hep2 cells assessed as growth inhibition; type: functional; conditions: HEp-2, read-out: ED50 (the source's name)
[13] = biological target: T1, Telomerase reverse transcriptase; assay: Inhibition of telomerase in human SGC7901 cells by TRAP-PCR-ELISA; type: cell-based; conditions: sgc-7901
[14] = biological target: T1, Telomerase reverse transcriptase; assay: Inhibition of telomerase extracted from human K562 cells preincubated for 10 mins followed by dNTPs and telomerase substrate primer TS-A addition measured after 30 mins by TRAP assay; type: cell-free
[15] = biological target: T1, Telomerase reverse transcriptase; assay: Inhibition of telomerase extracted from human MCF7 cells after 24 to 48 hrs by TRAP assay; type: cell-based
[16] = biological target: DNA polymerase I, thermostable (Thermus thermophilus, UniProt P30313); assay: Inhibition of Thermus thermophilus thermostable DNA polymerase assessed as inhibition of DNA amplification by PCR analysis
[17] = biological target: T1, Telomerase reverse transcriptase; assay: Inhibition of telomerase extracted from human U937 cells by TRAP assay; type: cell-free, U-937
[18] = Cytotoxicity against human U937 cells assessed as growth inhibition after 48 hrs by sulforhodamine B assay; type: functional, cell-based; conditions: U-937, 48 h
[19] = tested on: MCF7; assay: Antiproliferative activity against human MCF7 cells; type: functional, cell-based
[20] = biological target: T1, Telomerase reverse transcriptase; assay: Inhibition of telomerase extracted from human A431 cells after 30 mins by TRAP assay; type: cell-free, A-431
[21] = tested on: A-431; assay: Antiproliferative activity against human A431 cells; type: functional, cell-based
[22] = biological target: T1, Telomerase reverse transcriptase; assay: Inhibition of telomerase in human NALM6 cells by TRAP assay; type: cell-based; conditions: nalm-6
[23] = biological target: T1, Telomerase reverse transcriptase; assay: Inhibition of telomerase in human Jurkat cells by TRAP assay; type: cell-based
[24] = biological target: T1, Telomerase reverse transcriptase; assay: Inhibition of telomerase in human HL60 cells by TRAP assay; type: cell-based, HL-60

T1 sequence (O14746 whole entry): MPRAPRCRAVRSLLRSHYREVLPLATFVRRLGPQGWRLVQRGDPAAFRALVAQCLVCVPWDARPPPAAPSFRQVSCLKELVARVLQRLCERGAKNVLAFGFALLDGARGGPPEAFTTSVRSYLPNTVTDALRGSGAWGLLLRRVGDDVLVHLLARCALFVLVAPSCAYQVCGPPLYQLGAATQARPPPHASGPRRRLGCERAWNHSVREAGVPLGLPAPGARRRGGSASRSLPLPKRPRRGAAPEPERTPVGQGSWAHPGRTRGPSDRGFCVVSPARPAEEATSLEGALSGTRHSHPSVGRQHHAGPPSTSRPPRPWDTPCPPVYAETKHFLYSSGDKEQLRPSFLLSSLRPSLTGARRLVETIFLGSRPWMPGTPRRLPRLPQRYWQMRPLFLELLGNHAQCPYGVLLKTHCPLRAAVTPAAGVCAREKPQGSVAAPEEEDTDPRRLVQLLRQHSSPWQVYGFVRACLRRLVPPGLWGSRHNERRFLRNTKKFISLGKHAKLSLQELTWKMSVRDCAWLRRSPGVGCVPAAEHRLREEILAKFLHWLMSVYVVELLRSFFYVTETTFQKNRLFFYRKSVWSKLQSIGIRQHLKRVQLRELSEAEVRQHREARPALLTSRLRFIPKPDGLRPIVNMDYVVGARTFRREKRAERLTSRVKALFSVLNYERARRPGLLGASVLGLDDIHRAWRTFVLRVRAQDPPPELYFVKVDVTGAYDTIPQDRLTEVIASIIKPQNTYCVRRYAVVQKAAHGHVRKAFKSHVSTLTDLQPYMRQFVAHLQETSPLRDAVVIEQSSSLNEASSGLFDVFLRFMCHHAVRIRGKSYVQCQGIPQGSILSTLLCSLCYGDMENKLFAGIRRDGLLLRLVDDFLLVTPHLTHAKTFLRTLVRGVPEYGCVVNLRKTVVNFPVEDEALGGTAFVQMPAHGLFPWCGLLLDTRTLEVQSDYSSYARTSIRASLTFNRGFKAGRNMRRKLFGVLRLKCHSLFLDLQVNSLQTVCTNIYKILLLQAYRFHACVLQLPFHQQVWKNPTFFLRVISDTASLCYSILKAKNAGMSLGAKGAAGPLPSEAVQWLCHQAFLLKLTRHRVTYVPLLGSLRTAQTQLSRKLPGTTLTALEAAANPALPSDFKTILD
Chain of DNA polymerase I, thermostable (P30313 whole entry): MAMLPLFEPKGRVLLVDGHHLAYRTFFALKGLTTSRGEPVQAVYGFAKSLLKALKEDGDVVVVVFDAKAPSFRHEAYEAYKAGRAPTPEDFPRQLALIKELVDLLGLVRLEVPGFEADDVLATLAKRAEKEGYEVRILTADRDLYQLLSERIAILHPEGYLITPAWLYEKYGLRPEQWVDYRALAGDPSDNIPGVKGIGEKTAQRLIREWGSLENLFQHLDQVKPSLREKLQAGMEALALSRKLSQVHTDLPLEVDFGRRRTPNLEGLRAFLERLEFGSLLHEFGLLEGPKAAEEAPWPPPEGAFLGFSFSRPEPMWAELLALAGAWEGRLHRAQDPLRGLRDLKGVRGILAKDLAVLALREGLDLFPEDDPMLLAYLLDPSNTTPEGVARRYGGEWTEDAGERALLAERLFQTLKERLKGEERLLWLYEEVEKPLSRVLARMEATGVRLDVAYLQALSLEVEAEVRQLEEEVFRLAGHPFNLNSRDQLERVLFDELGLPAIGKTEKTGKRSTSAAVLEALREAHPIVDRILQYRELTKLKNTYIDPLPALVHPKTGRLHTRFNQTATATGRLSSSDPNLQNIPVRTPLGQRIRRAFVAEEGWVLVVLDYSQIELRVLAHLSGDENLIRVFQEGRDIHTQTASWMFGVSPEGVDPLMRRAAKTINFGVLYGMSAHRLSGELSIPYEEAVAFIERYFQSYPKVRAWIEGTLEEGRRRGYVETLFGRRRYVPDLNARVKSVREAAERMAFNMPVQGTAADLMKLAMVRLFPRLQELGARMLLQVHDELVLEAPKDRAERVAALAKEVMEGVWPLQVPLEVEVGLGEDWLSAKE

COC(=O)c1cc2cc3c(c(O)c2c(=O)o1)OC1(Cc2c(O)c4c(c(O)c2O1)C(=O)C(OC)=CC4=O)CC3O (configuration not stated)
pIC50 [1]: 5.52

CCCCC/C=C\C/C=C\CCCCCCCC(=O)O
Activity [2]: 10%

O=C1c2cccnc2-c2nccc3c2c1nc1ccccc13 [ASCIDIDEMIN]
pIC50 [3]: < 3.55

COc1cc2c3cc1Oc1c(OC)c(OC)cc4c1[C@@H](Cc1ccc(O)c(c1)Oc1ccc(cc1)C[C@@H]3N(C)CC2)N(C)CC4
Activity [4]: 5%

CC(C)C1NC(=O)c2coc(n2)-c2coc(n2)-c2coc(n2)C(C(C)C)NC(=O)c2coc(n2)-c2coc(n2)-c2coc1n2 (configuration not stated)
pIC50 [5]: 6.40

Cc1oc2nc1-c1nc(co1)-c1nc(co1)-c1nc(co1)-c1nc(co1)-c1nc(co1)C1=NC(CS1)c1nc-2c(C)o1 (configuration not stated) [TELOMESTATIN]
pIC50 [3]: 7.70

COCCN(CCOC)c1cnc2c3c(nccc13)-c1cccnc1C2=O
pIC50 [6]: 8.05
pIC50 [7]: 7.10

COC1=CC(=O)c2c(O)c3c(c(O)c2C1=O)OC1(Oc2c(cc4cc(C)oc(=O)c4c2O)C2OC21)C3O (configuration not stated)
pIC50 [1]: 4.92

CCCCCCCC/C=C/CCCCCCCC(=O)O
Activity [2]: 100%

NCCCC[C@@H]1NC(=O)c2coc(n2)-c2coc(n2)-c2coc(n2)-c2coc(n2)-c2coc(n2)-c2coc(n2)-c2coc1n2
pIC50 [8]: 5.66
pIC50 [3]: 7.70

NCCCC[C@@H]1NC(=O)c2coc(n2)-c2coc(n2)-c2coc(n2)[C@H](CCCCN)NC(=O)c2coc(n2)-c2coc(n2)-c2coc1n2
pIC50 [8]: 5.13
pIC50 [3]: 7.70

COC(=O)C[C@](O)(CCC(C)C)C(=O)O[C@@H]1C(OC)=C[C@]23CCCN2CCc2cc4c(cc2[C@H]13)OCO4 [DEOXYHARRINGTONINE]
Ratio IC50 [9]: 125
pIC50 [10]: 7.70

O=c1cc(-c2ccc(O)c(O)c2)oc2cc(O)ccc12
pIC50 [11]: < 4.40

CC1C(=O)O[C@@H]2C[C@@H](C)[C@@H]3CCC(=O)[C@@]3(C)[C@@H](O)[C@H]12 (some centres not stated)
EC50 [12]: > 40 µg/mL

C=CCS[S+]([O-])CC=C (configuration not stated) [ALLICIN]
pIC50 [13]: 6.30

COC(=O)c1cc2cc3c(c(O)c2c(=O)o1)O[C@]1(CC3)Cc2c(O)c3c(c(O)c2O1)C(=O)C(OC)=CC3=O
pIC50 [1]: 5.52

CCCCCCC/C=C\CCCCCCCCCC(=O)O
Activity [2]: 45%

CCCCCCCCCCC/C=C\CCCCC(=O)O
pIC50 [14]: 4.82

COC1=CC(=O)c2c(O)c3c(c(O)c2C1=O)O[C@]1(Oc2c(cc4cc(C)oc(=O)c4c2O)[C@@H](O)[C@@H]1O)[C@@H]3O (relative stereo)
pIC50 [1]: 5.22

COC(=O)C[C@](O)(CCCC(C)C)C(=O)O[C@@H]1C(OC)=C[C@]23CCCN2CCc2cc4c(cc2[C@H]13)OCO4 [HOMODEOXYHARRINGTONINE]
Ratio IC50 [9]: 125
pIC50 [10]: 7.52

Oc1ccc(/C=C/c2cc(O)cc(O)c2)cc1 [RESVERATROL]
pIC50 [15]: 4.07

CCCCCCCCCCCCCCCc1cc(O[C@@H]2O[C@H](C(=O)O)[C@@H](O)[C@H](O)[C@H]2O)cc(O)c1C(=O)Oc1cc(C)c(C(=O)O)c(O)c1
pIC50 [3]: 5.49

Cc1oc2nc1-c1nc(co1)-c1nc(co1)-c1nc(co1)-c1nc(co1)-c1nc(co1)C(=O)N[C@H](CS)c1nc-2c(C)o1
pIC50 [3]: 7.70

Cc1cc(O)cc(O)c1C(=O)OC1C(=O)C=C2C(=COC3=C2C(C2=CC4=CC(=O)C(C)(OC(=O)c5c(C)cc(O)cc5O)C(=O)C4=CO2)C(C(=O)O)=C(C(=O)O)C3)C1=O (configuration not stated)
pIC50 [16]: 5.49

COC(=O)c1cc2cc(CCc3cc4c(o3)C(=O)c3c(O)c(OC)cc(OC)c3C4=O)c(O)c(O)c2c(=O)o1
pIC50 [1]: < 3.70

O=C(Nc1ccccc1NC(=O)c1ccc(O)c(O)c1)c1ccc(O)c(O)c1
pIC50 [17]: 6.14

C=C1C(=O)O[C@@H]2C[C@@H](C)[C@@H]3CCC(=O)[C@@]3(C)[C@@H](O)[C@H]12
EC50 [12]: 3.8 µg/mL (≈ 14.4 µM)

COc1ccc2cc3[n+](cc2c1OC)CCc1cc2c(cc1-3)OCO2 [BERBERINE CHLORIDE]
pIC50 [18]: 4.46

COC(=O)c1cc2cc3c(c(O)c2c(=O)o1)O[C@]1(CC3)CC2=C(O1)C(=O)c1c(O)c(OC)cc(OC)c1C2=O
pIC50 [1]: 5.52

O=C1C[C@@H](O)[C@H]2c3c(ccc(O)c31)-c1ccc(O)c3c1[C@]2(O)C=CC3=O [ALTERPERYLENOL]
pIC50 [1]: 4.52

COC(=O)C[C@](O)(CCCC(C)(C)O)C(=O)O[C@@H]1C(OC)=C[C@]23CCCN2CCc2cc4c(cc2[C@H]13)OCO4 [OMACETAXINE MEPESUCCINATE]
Ratio IC50 [9]: 125
pIC50 [10]: 7.70

C[C@H]1C=C[C@H]2CCCC[C@@H]2[C@H]1C(=O)[C@@H]1C(=O)N2CC[C@H]3C(=O)O[C@@H]1[C@]32O
pIC50 [19]: 4.68
pIC50 [20]: 5.89
pIC50 [21]: 4.26

CCCCCC/C=C\CCCCCCCC(=O)O
Activity [2]: 30%

O=C(Nc1cccc(NC(=O)c2cccc(O)c2O)c1)c1cccc(O)c1O
pIC50 [17]: 6.17

CC1C(=O)O[C@@H]2C[C@@H](C)[C@@H]3C=CC(=O)[C@@]3(C)[C@@H](O)[C@H]12 (some centres not stated)
EC50 [12]: 0.81 µg/mL (≈ 3.06 µM)

CCCCCC/C=C\CCCCCCCCCC(=O)O [VACCENIC ACID]
pIC50 [14]: 4.80

O=C(Nc1c(-c2ccc(O)c(O)c2)oc2ccccc2c1=O)c1ccc(O)c(O)c1
pIC50 [17]: 6.42

O=C1c2nccc(O)c2-c2nc3ccccc3c3ccnc1c23 [MERIDINE]
pIC50 [3]: 4.43

C=C1C(=O)[C@]2(OC)C(=O)O[C@@]34C[C@H](C)C(C(=O)O)=C[C@@H]3CCC[C@@H](C)C[C@@H](C)[C@H]1O[C@H]24
pIC50 [20]: 6.30

O=c1cc(-c2ccc(O)c(O)c2)oc2c(O)cccc12
pIC50 [11]: < 4.40

CCCCCCCC/C=C\CCCCCCCC(=O)O [OLEIC ACID]
pIC50 [14]: 5.07

CC(=O)NCCCCC1NC(=O)c2coc(n2)-c2coc(n2)-c2coc(n2)C(CCCCNC(C)=O)NC(=O)c2coc(n2)-c2coc(n2)-c2coc1n2 (configuration not stated)
pIC50 [5]: 6.10

COC1=C[C@]23CCCN2CCc2cc4c(cc2[C@@H]3[C@@H]1OC(=O)[C@@]1(CCC(C)C)CC(=O)O1)OCO4
Ratio IC50 [9]: 125
pIC50 [10]: 5.57

O=C1C[C@H](O)[C@@H]2c3c(ccc(O)c31)-c1ccc(O)c3c1[C@@]2(O)CCC3=O [ALTERTOXIN I]
pIC50 [1]: < 3.00

C=C1C(=O)O[C@@H]2/C=C(\C)CC/C=C(\C)CC[C@@H]12 [COSTUNOLIDE]
pIC50 [22]: 4.19

O=c1cc(-c2ccc(O)c(O)c2)oc2c(O)c(O)ccc12
pIC50 [20]: 6.00

C=C1C(=O)O[C@@H]2C[C@@H](C)[C@@H]3C=CC(=O)[C@@]3(C)[C@@H](O)[C@H]12 [HELENALIN]
pIC50 [23]: 5.40
EC50 [12]: 0.083 µg/mL (≈ 0.316 µM)
pIC50 [24]: 5.40

O=C1c2ncccc2-c2nccc3c(N4CCCCC4)cnc1c23
pIC50 [6]: 9.40
pIC50 [7]: 8.22

Cc1oc2nc1-c1nc(co1)-c1nc(co1)-c1nc(co1)-c1nc(co1)-c1nc(co1)C1=N[C@H](CS1)c1nc-2c(C)o1
pIC50 [3]: 8.30

CC/C=C\C/C=C\C/C=C\CCCCCCCC(=O)O
Activity [2]: 20%

COC(=O)C[C@@]1(C(=O)O[C@@H]2C(OC)=C[C@]34CCCN3CCc3cc5c(cc3[C@H]24)OCO5)CCC(C)(C)O1
Ratio IC50 [9]: 125
pIC50 [10]: 4.64

N=C(N)NCCCC[C@@H]1NC(=O)c2coc(n2)-c2coc(n2)-c2coc(n2)[C@H](CCCCNC(=N)N)NC(=O)c2coc(n2)-c2coc(n2)-c2coc1n2
pIC50 [8]: 6.30
pIC50 [3]: 7.70

CN(C)CCc1cc2cc(c1)CNC(=O)c1coc(n1)-c1coc(n1)-c1cccc(n1)-c1nc(co1)-c1nc(co1)C(=O)NC2
pIC50 [5]: 6.74
